Measured values reported in EP0365087A1, “Immunotoxins for the treatment or prophylaxis of auto-immune diseases” (priority 1988, dated 1990).
No end group written: not given here.

Test system: male Lewis-rats
Assay: DTH ear swelling after 65 kD-protein challenge in rats with adjuvant arthritis
Assay type: in vivo
Details: 0.01 mg/kg injections day 0-5 and day 8-12; 10 µg 65 kD-protein into ear day 22, swelling day 24; group average

Substance: TAVVALELQ-OH [peptide I, Thr-Ala-Val-Val-Ala-Leu-Glu-Leu-Gln-OH]
- % swelling: 2.8 ± 3.4%
